Test results as given in PubChem BioAssay (NCI).
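GI50: concentration for 50% inhibition of growth. TGI: total growth inhibition.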

Columns and labels:
Assay in all cases: NCI anticancer screen, dose series, 384-well format
[1] = test system: CCRF-CEM leukemia
[2] = test system: LOX IMVI melanoma
[3] = test system: RPMI-8226 leukemia
[4] = test system: SN12C renal
[5] = test system: SNB-19 CNS
[6] = test system: MOLT-4 leukemia
[7] = test system: MALME-3M melanoma
[8] = test system: EKVX NSCLC
[9] = test system: A549 NSCLC
[10] = test system: HT29 colon
[11] = test system: HOP-62 NSCLC
[12] = test system: NCI-H322M lung
[13] = test system: UACC-257 melanoma
[14] = test system: SK-MEL-5 melanoma
[15] = test system: U251 glioblastoma
[16] = test system: NCI-H460 NSCLC
[17] = test system: PC-3 prostate
[18] = test system: NCI/ADR-RES ovarian
[19] = test system: CAKI-1 renal
[20] = test system: UACC-62 melanoma
[21] = test system: SF-539 CNS
[22] = test system: SNB-75 CNS
[23] = test system: SW-620 colon
[24] = test system: RXF 393 renal
[25] = test system: MDA-MB-435 melanoma
[26] = test system: UO-31 renal
[27] = test system: HL-60(TB) leukemia
[28] = test system: KM12 colon
[29] = test system: SK-MEL-2 melanoma
[30] = test system: T-47D breast
[31] = test system: NCI-H23 lung
[32] = test system: SR leukemia
[33] = test system: HCT-15 colon
[34] = test system: SF-268 CNS
[35] = test system: COLO 205 colon
[36] = test system: ACHN renal
[37] = test system: MCF7 breast
[38] = test system: A498 renal
[39] = test system: MDA-MB-468 breast
[40] = test system: M14 melanoma
[41] = test system: OVCAR-4 ovarian
[42] = test system: K-562 leukemia
[43] = test system: IGROV1 ovarian
[44] = test system: OVCAR-3 ovarian
[45] = test system: HS 578T breast
[46] = test system: 786-0 renal
[47] = test system: TK-10 renal

`CC(C)(O)CNc1nc(Nc2ccnc(C(F)(F)F)c2)nc(-c2cccc(C(F)(F)F)n2)n1` was tested, and the GI50 [1] was 14.4 µM, the TGI [1] was 28.1 µM and the GI50 [2] was 10.7 µM. It also gave a TGI [2] of 25.1 µM, a GI50 [3] of 18.7 µM and a TGI [3] of 32.9 µM. It also gave a GI50 [4] of 19.8 µM, a TGI [4] of 40.8 µM and a GI50 [5] of 32.3 µM. For the same molecule, the TGI [5] was 87.2 µM, the GI50 [6] was 13.7 µM and the TGI [6] was 26.8 µM. For the same molecule, the GI50 [7] was 18.4 µM, the TGI [7] was 33.9 µM and the GI50 [8] was 19 µM. It also gave a TGI [8] of 38.5 µM, a GI50 [9] of 17.3 µM and a TGI [9] of 35.4 µM. It also gave a GI50 [10] of 15.2 µM, a TGI [10] of 29.6 µM and a GI50 [11] of 15.1 µM. For the same molecule, the TGI [11] was 28.8 µM, the GI50 [12] was 16.1 µM and the TGI [12] was 31.4 µM. It also gave a GI50 [13] of 19.4 µM, a TGI [13] of 33.8 µM and a GI50 [14] of 13.8 µM. It also gave a TGI [14] of 26.8 µM, a GI50 [15] of 18.8 µM and a TGI [15] of 38.7 µM. It also gave a GI50 [16] of 17.5 µM, a TGI [16] of 32.6 µM and a GI50 [17] of 18.2 µM. For the same molecule, the TGI [17] was 33.9 µM, the GI50 [18] was 13.9 µM and the TGI [18] was 27.5 µM. The GI50 [19] was 21.3 µM, the TGI [19] was 45.2 µM and the GI50 [20] was 17.8 µM. The TGI [20] was 31.8 µM, the GI50 [21] was 16.3 µM and the TGI [21] was 30.9 µM. It also gave a GI50 [22] of 18.8 µM, a TGI [22] of 37.2 µM and a GI50 [23] of 24.4 µM. It also gave a TGI [23] of 55.2 µM, a GI50 [24] of 12.3 µM and a TGI [24] of 27.5 µM. It also gave a GI50 [25] of 19.9 µM, a TGI [25] of 37.7 µM and a GI50 [26] of 21.1 µM. The TGI [26] was 40.9 µM, the GI50 [27] was 14.9 µM and the TGI [27] was 28.3 µM. For the same molecule, the GI50 [28] was 17.9 µM, the TGI [28] was 34.8 µM and the GI50 [29] was 0.265 µM. The TGI [29] was 1.17 µM, the GI50 [30] was 9.87 µM and the TGI [30] was 23 µM. The GI50 [31] was 18.7 µM, the TGI [31] was 35.6 µM and the GI50 [32] was 4.82 µM. The TGI [32] was 17.5 µM, the GI50 [33] was 13.5 µM and the TGI [33] was 28.1 µM. It also gave a GI50 [34] of 20.2 µM, a TGI [34] of 40.3 µM and a GI50 [35] of 18.5 µM. It also gave a TGI [35] of 34.8 µM, a GI50 [36] of 20.9 µM and a TGI [36] of 40.5 µM. For the same molecule, the GI50 [37] was 15.9 µM, the TGI [37] was 30.5 µM and the GI50 [38] was 19.9 µM. The TGI [38] was 39.9 µM, the GI50 [39] was 20.3 µM and the TGI [39] was 35 µM. For the same molecule, the GI50 [40] was 19.8 µM, the TGI [40] was 35.2 µM and the GI50 [41] was 19.7 µM. For the same molecule, the TGI [41] was 36.3 µM, the GI50 [42] was 14.7 µM and the TGI [42] was 28.7 µM. For the same molecule, the GI50 [43] was 18.6 µM, the TGI [43] was 37.4 µM and the GI50 [44] was 17.6 µM. It also gave a TGI [44] of 32.9 µM, a GI50 [45] of 14.6 µM and a TGI [45] of 29.5 µM. The GI50 [46] was 17.4 µM, the TGI [46] was 37.6 µM and the GI50 [47] was 19.8 µM. It also gave a TGI [47] of 43.4 µM.
